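How tested: cells in 96-well plates exposed to compound for 48 hours at five concentrations. Abbreviation: GI50, concentration required for 50% inhibition of growth. TGI: concentration producing complete growth inhibition.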
Assays:
Test in all cases: NCI tumour cell line growth inhibition, 48 h
[1] = test system: HT29 colon
[2] = test system: SN12C renal
[3] = test system: SK-MEL-5 melanoma
[4] = test system: SK-MEL-28 melanoma
[5] = test system: NCI-H460 lung
[6] = test system: NCI-H522 lung
[7] = test system: SNB-19 CNS
[8] = test system: HCT-116 colon
[9] = test system: K-562 leukemia
[10] = test system: KM12 colon
[11] = test system: TK-10 renal
[12] = test system: PC-3 prostate
[13] = test system: T-47D breast
[14] = test system: HCC-2998 colon
[15] = test system: ACHN renal
[16] = test system: UACC-257 melanoma
[17] = test system: BT-549 breast
[18] = test system: A549 NSCLC
[19] = test system: HL-60(TB) leukemia
[20] = test system: SK-MEL-2 melanoma
[21] = test system: LOX IMVI melanoma
[22] = test system: CCRF-CEM leukemia
[23] = test system: UO-31 renal
[24] = test system: SF-268 CNS
[25] = test system: 786-0 renal

`Cc1c2c(nn1-c1ccc(S(=O)(=O)/N=C3\SCCC(=O)N3c3ccccc3)cc1)-c1ccccc1CC2` was tested. Which GI50 [1] did it give?
The GI50 was greater than 100 µM.

What about the TGI [1] of the same compound?
Its TGI is greater than 100 µM.

What about the GI50 [2] of the same compound?
The GI50 was 87.5 µM.

And the TGI [2]?
The TGI was greater than 100 µM.

And the GI50 [3]?
Its GI50 is 95.9 µM.

What about the TGI [3] of the same compound?
The TGI was greater than 100 µM.

What about the GI50 [4] of the same compound?
Its GI50 is greater than 100 µM.

And the TGI [4]?
The TGI was greater than 100 µM.

And the GI50 [5]?
Its GI50 is greater than 100 µM.

And the TGI [5]?
Its TGI is greater than 100 µM.

And the GI50 [6]?
The GI50 was 91.4 µM.

And the TGI [6]?
The TGI was greater than 100 µM.

And the GI50 [7]?
Its GI50 is greater than 100 µM.

What about the TGI [7] of the same compound?
The TGI was greater than 100 µM.

What about the GI50 [8] of the same compound?
The GI50 was greater than 100 µM.

What about the TGI [8] of the same compound?
Its TGI is greater than 100 µM.

What about the GI50 [9] of the same compound?
Its GI50 is greater than 100 µM.

And the TGI [9]?
Its TGI is greater than 100 µM.

And the GI50 [10]?
Its GI50 is greater than 100 µM.

And the TGI [10]?
The TGI was greater than 100 µM.

And the GI50 [11]?
The GI50 was greater than 100 µM.

What about the TGI [11] of the same compound?
Its TGI is greater than 100 µM.

And the GI50 [12]?
The GI50 was greater than 100 µM.

And the TGI [12]?
Its TGI is greater than 100 µM.

What about the GI50 [13] of the same compound?
The GI50 was greater than 100 µM.

What about the TGI [13] of the same compound?
The TGI was greater than 100 µM.

And the GI50 [14]?
The GI50 was greater than 100 µM.

What about the TGI [14] of the same compound?
Its TGI is greater than 100 µM.

What about the GI50 [15] of the same compound?
The GI50 was greater than 100 µM.

And the TGI [15]?
Its TGI is greater than 100 µM.

What about the GI50 [16] of the same compound?
The GI50 was greater than 100 µM.

And the TGI [16]?
Its TGI is greater than 100 µM.

What about the GI50 [17] of the same compound?
The GI50 was greater than 100 µM.

What about the TGI [17] of the same compound?
The TGI was greater than 100 µM.

What about the GI50 [18] of the same compound?
Its GI50 is greater than 100 µM.

And the TGI [18]?
The TGI was greater than 100 µM.

What about the GI50 [19] of the same compound?
Its GI50 is greater than 100 µM.

And the TGI [19]?
Its TGI is greater than 100 µM.

What about the GI50 [20] of the same compound?
Its GI50 is greater than 100 µM.

What about the TGI [20] of the same compound?
Its TGI is greater than 100 µM.

And the GI50 [21]?
The GI50 was greater than 100 µM.

What about the TGI [21] of the same compound?
The TGI was greater than 100 µM.

And the GI50 [22]?
Its GI50 is greater than 100 µM.

What about the TGI [22] of the same compound?
The TGI was greater than 100 µM.

And the GI50 [23]?
Its GI50 is greater than 100 µM.

And the TGI [23]?
Its TGI is greater than 100 µM.

What about the GI50 [24] of the same compound?
The GI50 was 35 µM.

What about the TGI [24] of the same compound?
Its TGI is greater than 100 µM.

What about the GI50 [25] of the same compound?
The GI50 was 81.7 µM.

And the TGI [25]?
Its TGI is greater than 100 µM.

Reference: PubChem BioAssay (NCI)
